Here are results for 5 compounds from BindingDB's records for PubMed 36812150 (China Pharmaceutical University, 2023).

Sucrase-isomaltase, intestinal, sequence (P23739 1-1013 limits assumed): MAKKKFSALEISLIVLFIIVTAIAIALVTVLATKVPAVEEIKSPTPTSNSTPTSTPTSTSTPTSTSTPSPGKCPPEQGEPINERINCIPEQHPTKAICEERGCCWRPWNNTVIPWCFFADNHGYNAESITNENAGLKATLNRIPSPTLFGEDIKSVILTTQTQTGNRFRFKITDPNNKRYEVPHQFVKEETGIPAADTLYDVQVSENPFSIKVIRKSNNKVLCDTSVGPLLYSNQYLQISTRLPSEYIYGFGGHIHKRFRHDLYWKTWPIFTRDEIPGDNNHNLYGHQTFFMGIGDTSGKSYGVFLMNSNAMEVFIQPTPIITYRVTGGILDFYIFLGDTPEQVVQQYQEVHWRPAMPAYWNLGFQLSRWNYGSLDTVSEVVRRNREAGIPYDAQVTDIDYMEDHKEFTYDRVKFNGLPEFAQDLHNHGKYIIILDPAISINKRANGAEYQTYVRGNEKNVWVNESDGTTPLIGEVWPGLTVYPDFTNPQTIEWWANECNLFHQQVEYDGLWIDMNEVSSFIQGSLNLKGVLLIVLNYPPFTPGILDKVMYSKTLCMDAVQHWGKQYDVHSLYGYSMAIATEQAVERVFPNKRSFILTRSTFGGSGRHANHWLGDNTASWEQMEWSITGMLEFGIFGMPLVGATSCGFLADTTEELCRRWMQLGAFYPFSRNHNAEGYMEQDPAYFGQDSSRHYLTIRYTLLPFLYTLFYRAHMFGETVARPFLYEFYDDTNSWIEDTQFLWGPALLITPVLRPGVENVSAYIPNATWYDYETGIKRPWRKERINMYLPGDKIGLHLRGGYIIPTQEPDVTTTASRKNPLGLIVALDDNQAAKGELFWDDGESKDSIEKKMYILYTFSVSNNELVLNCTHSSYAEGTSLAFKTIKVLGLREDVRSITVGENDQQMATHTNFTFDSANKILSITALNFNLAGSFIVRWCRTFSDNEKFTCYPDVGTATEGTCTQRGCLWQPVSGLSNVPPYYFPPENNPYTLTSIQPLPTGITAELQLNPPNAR
Sucrase-isomaltase, intestinal, sequence (P23739 1014-1841 limits assumed): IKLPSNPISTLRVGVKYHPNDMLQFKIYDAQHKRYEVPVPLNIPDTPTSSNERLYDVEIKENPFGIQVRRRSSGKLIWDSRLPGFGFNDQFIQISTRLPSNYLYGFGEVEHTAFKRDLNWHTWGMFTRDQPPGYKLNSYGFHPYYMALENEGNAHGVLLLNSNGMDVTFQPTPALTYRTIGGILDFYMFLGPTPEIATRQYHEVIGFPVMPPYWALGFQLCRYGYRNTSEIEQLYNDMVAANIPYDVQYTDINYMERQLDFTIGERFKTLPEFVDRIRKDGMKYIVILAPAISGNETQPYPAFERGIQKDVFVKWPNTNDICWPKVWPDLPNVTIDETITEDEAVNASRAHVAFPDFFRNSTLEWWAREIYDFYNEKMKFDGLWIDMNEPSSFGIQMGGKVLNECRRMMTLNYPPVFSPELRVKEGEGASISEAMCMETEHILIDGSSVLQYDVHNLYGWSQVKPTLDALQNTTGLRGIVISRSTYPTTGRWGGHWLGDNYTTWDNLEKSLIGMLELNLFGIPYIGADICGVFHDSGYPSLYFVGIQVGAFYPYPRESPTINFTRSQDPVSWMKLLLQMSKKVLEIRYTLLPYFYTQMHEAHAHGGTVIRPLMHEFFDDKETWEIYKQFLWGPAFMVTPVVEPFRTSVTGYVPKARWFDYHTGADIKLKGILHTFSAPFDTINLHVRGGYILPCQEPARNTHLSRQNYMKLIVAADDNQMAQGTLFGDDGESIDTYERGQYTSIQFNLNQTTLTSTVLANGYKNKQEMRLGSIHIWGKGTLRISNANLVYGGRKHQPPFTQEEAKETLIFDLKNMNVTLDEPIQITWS

This assay concerns the target Sucrase-isomaltase, intestinal (Rattus norvegicus, UniProt P23739). Put plainly: Binding affinity to sucrase in rat small intestinal brush border membrane vesicles assessed as inhibition constant using sucrose as substrate incubated for 30 mins by glucose-oxidase method.
In the case of `OC[C@@H]1[C@@H](O)[C@H](O)C[S@+]1C[C@@H](O)[C@H]1OC(c2ccccc2)OC[C@H]1O` (stereo not given in full), the inhibitory constant (Ki) is 310 nM. The same measure for `O=[N+]([O-])c1ccccc1C1OC[C@@H](O)[C@@H]([C@H](O)C[S@@+]2C[C@@H](O)[C@H](O)[C@H]2CO)O1` (stereo not given in full): 160 nM; for `OC[C@@H]1[C@@H](O)[C@H](O)C[S@+]1C[C@@H](O)[C@H]1OC(c2ccccc2C(F)(F)F)OC[C@H]1O` (stereo not given in full): 190 nM.

Consider `OC[C@@H]1[C@@H](O)[C@H](O)C[S@+]1C[C@@H](O)[C@H]1OC(c2ccccc2Cl)OC[C@H]1O` (stereo not given in full), for which the inhibitory constant (Ki) is 210 nM. The same measure for `OC[C@@H]1[C@@H](O)[C@H](O)C[S@+]1C[C@@H](O)[C@H]1OC(c2ccccc2F)OC[C@H]1O` (stereo not given in full): 240 nM.
